Experimental data as given in patent US9451775B2, “Heterocyclic compounds as pesticides” (Bayer Intellectual Property GmbH, priority 2008, dated 2016).

Assay: logP determination by HPLC (formic acid method)
Assay type: physicochemical
Details: pH 3.4; values given in the preparation examples; formic acid method; read-out: logP (HCOOH)
Method: 1) Description of the method for determining the logP values (formic acid method)
The logP values given in the table were determined in accordance with EEC Directive 79/831 Annex V.A8 by HPLC (High Performance Liquid Chromatography) on a reversed-phase column (C18). Temperature: 55° C.
Mobile phases for the determination in the acidic range (pH 3.4):
Mobile phase A: Acetonitrile+1 ml of formic acid/litre. Mobile phase B: water+0.9 ml of formic acid/litre.
Gradient: from 10% mobile phase A/90% mobile phase B to 95% mobile phase A/5% mobile phase B in 4.25 min.
Calibration was carried out using unbranched alkan-2-ones (having 3 to 16 carbon atoms) with known logP values (determination of the logP values by the retention times using linear interpolation between two successive alkanones). The lambda max values were determined in the maxima of the chromatographic signals using the UV spectra from 200 nm to 400 nm.

Structure (SMILES)	chromatographic logP
COC(=O)c1cc(-c2cccnc2)nn1C (single isomer, unassigned) [drawing 76 isomer 1]	0.84
COC(=O)c1cc(-c2cccnc2)n(C)n1 (single isomer, unassigned) [drawing 76 isomer 2]	0.77

Same assay, conditions: reversed-phase HPLC column (C18), pH 3.4, HPLC on reversed-phase column (C18), acidic range (pH 3.4), 55° C.; read-out: logP (HCOOH)

chromatographic logP	Structure (SMILES)
2.53	Cc1nc(-c2cccnc2)sc1-c1nc(-c2ccccn2)cs1 [compound 172]
2.66	Cc1cccc(-c2csc(-c3sc(-c4cccnc4)nc3C)n2)n1 [compound 173]
1.76	CNc1nc(-c2sc(-c3cccnc3)nc2C)cs1 [compound 174]
2.23	Cc1nc(-c2cccnc2)sc1-c1nc(C(=O)NCC(F)(F)F)cs1 [compound 175]
3.21	COc1cc(OC)nc(-c2nc(-c3sc(-c4cccnc4)nc3C)cs2)n1 [compound 176]
2.19	Cc1nc(-c2cccnc2)sc1-c1csc(-c2cccnc2)n1 [compound 177]
2.43	Clc1cccc(-c2cnc(-c3cccnc3)s2)n1 [compound 178]
1.06	Cc1nc(-c2cncnc2)sc1-c1ccnc(-c2ncccn2)n1 [compound 179]
1.43	c1cncc(-c2ncc(-c3cccc(-c4nccnn4)n3)s2)c1 [compound 180]
1.82	CN1CCOC(c2cccc(-c3cnc(-c4cccnc4)s3)n2)=N1 [compound 181]
1.74	c1cncc(-c2ncc(-c3cccc(-c4ncon4)n3)s2)c1 [compound 182]
1.24	c1cncc(-c2ncc(-c3cccc(-c4nc[nH]n4)n3)s2)c1 [compound 183]
1.44	CS(=O)(=O)c1cccc(-c2cnc(-c3cccnc3)s2)n1 [compound 184]
1.63	Cc1nc(-c2cncc(F)c2)sc1-c1ccnc(-c2ncccn2)n1 [compound 186]
3.08	Cc1cnn(-c2cccc(-c3cnc(-c4cccnc4)s3)n2)c1 [compound 188]
2.85	Cc1ccn(-c2cccc(-c3cnc(-c4cccnc4)s3)n2)n1 [compound 189]
1.41	CNc1nccc(-c2sc(-c3cccnc3)nc2C)n1 [compound 193]
2.15	Cc1nc(-c2cccnc2)sc1-c1ccnc(N(C)C)n1 [compound 194]
3.76	Cc1nc(-c2cccnc2)sc1-c1ccn(-c2nc(Cl)ns2)n1 [compound 195]
3.01	COCCNC(=S)n1ccc(-c2sc(-c3cccnc3)nc2C)n1 [compound 196]
2.58	Cc1cc(C)nc(-c2nc(-c3sc(-c4cccnc4)nc3C)cs2)n1 [compound 197]
2.83	CN(C)c1cccc(-c2cnc(-c3cccnc3)s2)n1 [compound 200]
0.89	Cc1nccn1-c1cccc(-c2cnc(-c3cccnc3)s2)n1 [compound 201]
2.11	O=C1CCCN1c1cccc(-c2cnc(-c3cccnc3)s2)n1 [compound 206]
0.92	Nc1cccc(-c2cnc(-c3cccnc3)s2)n1 [compound 219]
1.34	CN(C)C(=O)c1cccc(-c2nnc(-c3cccnc3)s2)n1 [compound 221]
2.77	CC(F)(F)c1cccc(-c2cnc(-c3cccnc3)s2)n1 [compound 224]
2.08	COC(OC)c1cccc(-c2cnc(-c3cccnc3)s2)n1 [compound 225]

More lines, now with the values behind:

Structure (SMILES)	chromatographic logP
Cc1cc(-c2sc(-c3cncc(F)c3)nc2C)nc(-c2ncccn2)n1 [compound 185]	1.68
c1cncc(-c2ncc(-c3cccc(-n4cccn4)n3)s2)c1 [compound 187]	2.53
Cn1nc(-c2cccnc2)cc1-c1cccc(Br)n1 [compound 190]	1.67
Cn1nc(-c2cccnc2)cc1-c1cccc(-c2ncccn2)n1 [compound 192]	1.12
c1cncc(-c2ncc(-c3cccc(-n4ccnc4)n3)s2)c1 [compound 199]	0.93
c1cncc(-c2ncc(-c3cccc(-n4cccc4)n3)s2)c1 [compound 202]	3.13
c1cncc(-c2ncc(-c3cccc(C4OCCCO4)n3)s2)c1 [compound 203]	1.99
O=C1CCCCN1c1cccc(-c2cnc(-c3cccnc3)s2)n1 [compound 204]	1.87
c1cncc(-c2ncc(-c3cccc(C4OCCO4)n3)s2)c1 [compound 205]	1.82
c1cncc(-c2ncc(-c3cnc(-c4cccnc4)s3)s2)c1 [compound 217]	1.43
Cn1nc(-c2cccnc2)cc1-c1cccnc1 [compound 218]	0.89
CC(F)(F)c1ccc(-c2cnc(-c3cccnc3)s2)nc1 [compound 223]	2.46

Same assay, conditions: reversed-phase HPLC column (C18), pH 3.4, values printed in the text of the preparation examples; formic acid method; read-out: logP (HCOOH)

chromatographic logP	Structure (SMILES)
2.66	Cc1nc(-c2cccnc2)sc1-c1cccc(Cl)n1 [2-Chloro-6-(4-methyl-2-pyridin-3-ylthiazol-5-yl)pyridine]
1.48	CC(=O)c1sc(-c2cccnc2)nc1C [3-(5-Acetyl-4-methylthiazol-2-yl)pyridinium chloride]
2.3	Cc1nc(-c2cccnc2)sc1Br [3-(5-Bromo-4-methylthiazol-2-yl)pyridine]
1.31	Cc1nc(-c2cccnc2)sc1-c1cc[nH]n1 [3-[4-Methyl-5-(1H-pyrazol-3-yl)thiazol-2-yl]pyridine]
2.11	Cc1nc(-c2cccnc2)sc1-c1cccc(C#N)n1 [6-(4-Methyl-2-pyridin-3-ylthiazol-5-yl)pyridine-2-carbonitrile]
2.13	Cc1nc(-c2cccnc2)sc1-c1cccc(C(N)=S)n1 [6-(4-Methyl-2-pyridin-3-ylthiazol-5-yl)pyridine-2-carbothioamide]

The next lines start with the compound.

Structure (SMILES)	chromatographic logP
CC(=O)c1cc(-c2cccnc2)nn1C	0.61
CN(C)/C=C/C(=O)c1cc(-c2cccnc2)nn1C	0.6
CC(=O)c1nnc(-c2cccnc2)s1 [1-(5-Pyridin-3-yl-[1,3,4]thiadiazol-2-yl)ethanone]	1.16
Brc1cccc(C2=NOCCO2)n1 [3-(6-Bromopyridin-2-yl)-5,6-dihydro-[1,4,2]dioxazine]	1.37
Cc1nc(-c2cccnc2)sc1C(=O)/C=C/N(C)C [3-Dimethylamino-1-(4-methyl-2-pyridin-3-ylthiazol-5-yl)propenone]	1.35
c1cncc(-c2nccs2)c1 [3-Thiazol-2-ylpyridine]	0.62
c1cncc(-c2nncs2)c1 [3-[1,3,4]Thiadiazol-2-ylpyridine]	0.15
Cc1nc(-c2cccnc2)sc1C(=O)NN(CCO)c1ncccn1 [4-Methyl-2-pyridin-3-ylthiazole-5-carboxylic acid N-(hydroxyethyl)-N-pyrimidin-2-ylhydrazide]	1.08
O=C(NO)c1cccc(Br)n1 [6-Bromopyridine-2-carboxylic acid hydroxyamide]	0.69
CN(C)/C=C/C(=O)c1nnc(-c2cccnc2)s1 [(3-Dimethylamino-1-(5-pyridin-3-yl-[1,3,4]thiadiazol-2-yl)propenone]	1.05
CCOC(=O)C(=O)NNC(=O)c1cccnc1 [Ethyl oxo-[N′-(pyridin-3-carbonyl)hydrazino]acetate]	-0.13

Same assay, conditions: values given in the preparation examples; formic acid method

logP (HCOOH)	Structure (SMILES)
1.5	CC(=O)c1sc(-c2cccnc2)nc1C [1-(4-Methyl-2-pyridin-3-ylthiazol-5-yl)ethanone]
